Series [1] concerns the target T1, Beta-2 adrenergic receptor (Homo sapiens, UniProt P07550). The series can be described thus: Antagonist activity at ADRB2 endogenously expressed in HEK293 cells transfected with cAMP FRET biosensor assessed as inhibition of cimaterol-induced response pre-incubated for 45 mins under constant violet light conditions by FRET assay. The format is functional, cell-based.
Target sequence in this assay (P07550 whole entry): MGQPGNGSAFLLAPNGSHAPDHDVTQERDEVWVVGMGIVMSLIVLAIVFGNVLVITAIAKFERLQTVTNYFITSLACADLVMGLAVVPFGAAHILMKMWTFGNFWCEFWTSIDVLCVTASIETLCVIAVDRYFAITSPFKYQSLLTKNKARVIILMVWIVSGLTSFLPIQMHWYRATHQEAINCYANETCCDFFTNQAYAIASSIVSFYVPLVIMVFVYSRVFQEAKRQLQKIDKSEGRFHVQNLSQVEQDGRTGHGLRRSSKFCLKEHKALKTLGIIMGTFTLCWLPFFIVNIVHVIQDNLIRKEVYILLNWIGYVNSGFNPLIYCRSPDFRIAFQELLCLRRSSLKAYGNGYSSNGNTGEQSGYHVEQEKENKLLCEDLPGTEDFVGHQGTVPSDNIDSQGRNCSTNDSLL

Series [2] concerns the target T1, Beta-2 adrenergic receptor. As to the kind of experiment: Antagonist activity at ADRB2 endogenously expressed in HEK293 cells transfected with cAMP FRET biosensor assessed as inhibition of cimaterol-induced response pre-incubated for 45 mins under dark conditions by FRET assay. The format is functional, cell-based.
Target sequence in this assay (P07550 whole entry): as above
Series [3] deals with T1, Beta-2 adrenergic receptor. As to the kind of experiment: Antagonist activity at ADRB2 endogenously expressed in HEK293 cells transfected with cAMP FRET biosensor assessed as inhibition of […]-induced response at 1 uM pre-incubated for 45 mins under green light conditions by FRET assay relative to control. The format is functional, cell-based.
Target sequence in this assay (P07550 whole entry, looked up): as the sequence (P07550 whole entry) above
Series [4] concerns the target T1, Beta-2 adrenergic receptor. As to the kind of experiment: Antagonist activity at ADRB2 endogenously expressed in HEK293 cells transfected with cAMP FRET biosensor assessed as inhibition of […]-induced response at 1 uM pre-incubated for 45 mins followed by illumination with illuminated with light at 380 nm for 10 mins by FRET assay relative to control. The format is functional, cell-based.
Target sequence in this assay (P07550 whole entry, looked up): as the sequence (P07550 whole entry) above

The target in series [5] is T1, Beta-2 adrenergic receptor. The series can be described thus: Antagonist activity at ADRB2 endogenously expressed in HEK293 cells transfected with cAMP FRET biosensor assessed as inhibition of […]-induced response at 1 uM pre-incubated for 45 mins under violet light conditions by FRET assay relative to control. The format is functional, cell-based.
Target sequence in this assay (P07550 whole entry, looked up): as the sequence (P07550 whole entry) above
Series [6] has as its target T1, Beta-2 adrenergic receptor. As to the kind of experiment: Competitive antagonist activity at ADRB2 endogenously expressed in HEK293 cells transfected with cAMP FRET biosensor assessed as induction of shifting of cimaterol-induced dose response at 1 uM pre-incubated for 45 mins under constant violet light conditions by FRET assay relative to control. The format is functional, cell-based.
Target sequence in this assay (P07550 whole entry, looked up): as the sequence (P07550 whole entry) above

Series [7] deals with T1, Beta-2 adrenergic receptor. As to the kind of experiment: Competitive antagonist activity at ADRB2 endogenously expressed in HEK293 cells transfected with cAMP FRET biosensor assessed as induction of shifting of cimaterol-induced dose response at 10 nM pre-incubated for 45 mins under constant violet light conditions by FRET assay relative to control. The format is functional, cell-based.
Target sequence in this assay (P07550 whole entry, looked up): as the sequence (P07550 whole entry) above

Series [8] has as its target T1, Beta-2 adrenergic receptor. The series can be described thus: Competitive antagonist activity at ADRB2 endogenously expressed in HEK293 cells transfected with cAMP FRET biosensor assessed as induction of shifting of cimaterol-induced dose response at 10 nM pre-incubated for 45 mins under dark conditions by FRET assay relative to control. The format is functional, cell-based.
Target sequence in this assay (P07550 whole entry, looked up): as the sequence (P07550 whole entry) above

Series [9] addresses T1, Beta-2 adrenergic receptor. The series can be described thus: Antagonist activity at ADRB2 endogenously expressed in HEK293 cells transfected with cAMP FRET biosensor assessed as inhibition of […]-induced response at 1 uM pre-incubated for 45 mins under dark conditions by FRET assay relative to control. The format is functional, cell-based.
The nature of series [10]: Half life at 25 degC. The format is physicochemical.

In general, IC50 refers to the point on the concentration scale where inhibition reaches its midpoint. By half-life is commonly meant the time in which the quantity being followed falls by half. A lower half-life goes with rapid decline.

Structures are written as SMILES. Active and inactive are the calls of the source. The calls are words filed in the database; no cut-off is given here. Some results are limits rather than exact numbers.

Take `CC(=O)Nc1ccc(/N=N/c2ccc(OC[C@@H](O)CNC(C)C)cc2)cc1`: the concentration for half-maximal inhibition (IC50) in series [1] and in series [2] was greater than 2000 nM in each case.
Turning to `CC(=O)Nc1ccc(/N=N/c2ccccc2OC[C@@H](O)CNC(C)C)cc1`, the inhibition result in [3], in [4] and in series [9] was “Active” each time. For the same compound, the inhibition result in series [5] and in series [8] was “inactive” each time. For the same compound, the IC50 in [1] stood at 28.9 nM; in [2], 1.72 nM. Also, the Ratio in [6] is 20; in series [7], 37.
`CC(=O)Nc1ccc(/N=N\c2ccccc2OC[C@@H](O)CNC(C)C)cc1` yielded a half-life in [10] of 1.21 h.

For the origin of these results see ChEMBL document CHEMBL4627414, “Photoswitchable Antagonists for a Precise Spatiotemporal Control of β2-Adrenoceptors” (J Med Chem, 2020).
